Test results from patent publication US11780841B2, “3,6-methano-1H-pyrrolo[3,2-b]pyridine and 3,6-methano-1H-pyrrolo[3,2-c]pyridine compounds and medicaments using same” (priority 2018, dated 2023).

test system: recombinant rabies virus 1088 strain expressing Gaussia Luciferase (GLuc) (1088/GLuc); format: cell-based; conditions: read-out: Anti-rabies activity

`CC(C)CCN1C[C@@H]2C[C@@H]3CN[C@]2(C(=O)NCc2ccccc2)[C@@H]1[C@@H]3CC(C)C` [IB-876] and `CCOc1ccc(CN2C[C@@H]3C[C@@H]4CN[C@]3(C(=O)NCc3ccccc3)[C@@H]2[C@@H]4CC(C)C)cc1` [IB-878] fall in the same range of IC50: 10 to 30 µM for the first, 10 to 30 µM for the second.

`CC(C)C[C@@H]1[C@H]2CN[C@@]3(C(=O)NCc4ccc5ccccc5c4)[C@@H](C2)CN(Cc2ccccc2)[C@@H]13` [IB-879] and `CC(C)C[C@@H]1[C@@H]2[C@@H]3CN[C@@]1(C(=O)NCc1ccc(O)cc1)C[C@@H]3CN2Cc1cccc2ccccc12` [IF-473] cannot be ordered by IC50: under 5 µM for the first, under 5 µM for the second.

First: NC(=O)CN1C[C@H]2C[C@]3(C(=O)NCc4ccc(F)cc4)NC[C@H]2[C@H]1[C@H]3Cc1cccc2ccccc12 [IF-97]
Second: NC(=O)CN1C[C@H]2C[C@]3(C(=O)NCc4ccc(O)cc4)NC[C@H]2[C@H]1[C@H]3Cc1cccc2ccccc12 [IF-137]
The IC50 of the first is higher: 10 to 30 µM for the first, under 5 µM for the second.

`CCCCCCNC(=O)[C@@]12C[C@@H]3CN(CC(N)=O)[C@@H]([C@@H]3CN1)[C@H]2CCc1ccccc1` [IF-109] and `CCCCCCNC(=O)[C@@]12C[C@@H]3CN(Cc4ccccc4)[C@@H]([C@@H]3CN1)[C@H]2CCCNC(=N)N` [IF-285] fall in the same range of IC50: 10 to 30 µM for the first, 10 to 30 µM for the second.

`CCCCCCNC(=O)[C@@]12C[C@@H]3CN(CC(N)=O)[C@@H]([C@@H]3CN1)[C@H]2Cc1cccc2ccccc12` [IF-110] and `CCCCCCNC(=O)[C@@]12C[C@@H]3CN(Cc4cccc5ccccc45)[C@@H]([C@@H]3CN1)[C@H]2CCCNC(=N)N` [IF-243] cannot be ordered by IC50: under 5 µM for the first, under 5 µM for the second.

`CC(C)CCN1C[C@H]2C[C@]3(C(=O)NC(C)C)NC[C@H]2[C@H]1[C@H]3CCCNC(=N)N` [IF-214] and `CC(C)NC(=O)[C@@]12C[C@@H]3CN(Cc4ccc(F)cc4)[C@@H]([C@@H]3CN1)[C@H]2CCCNC(=N)N` [IF-274] fall in the same range of IC50: 10 to 30 µM for the first, 10 to 30 µM for the second.

`NC(=O)CCNC(=O)[C@@]12C[C@@H]3CN(CCc4ccccc4)[C@@H]([C@@H]3CN1)[C@H]2CC(N)=O` [IF-219] and `NC(=O)C[C@@H]1[C@@H]2[C@@H]3CN[C@@]1(C(=O)NCCc1ccccc1)C[C@@H]3CN2CC1CCCCC1` [IF-251] fall in the same range of IC50: 10 to 30 µM for the first, 10 to 30 µM for the second.

`NC(=O)C[C@@H]1[C@@H]2[C@@H]3CN[C@@]1(C(=O)NCc1cccc4ccccc14)C[C@@H]3CN2CCc1ccccc1` [IF-223] and `N=C(N)NCCC[C@@H]1[C@@H]2[C@@H]3CN[C@@]1(C(=O)NCc1cccc4ccccc14)C[C@@H]3CN2Cc1ccccc1` [IF-284] fall in the same range of IC50: 10 to 30 µM for the first, 10 to 30 µM for the second.

`CC(C)CNC(=O)[C@@]12C[C@@H]3CN(Cc4cccc5ccccc45)[C@@H]([C@@H]3CN1)[C@H]2CC(N)=O` [IF-226] and `NC(=O)C[C@@H]1[C@@H]2[C@@H]3CN[C@@]1(C(=O)NCCO)C[C@@H]3CN2Cc1cccc2ccccc12` [IF-230] fall in the same range of IC50: 10 to 30 µM for the first, 10 to 30 µM for the second.

First: CC(C)CNC(=O)[C@@]12C[C@@H]3CN(Cc4cccc5ccccc45)[C@@H]([C@@H]3CN1)[C@H]2CCCNC(=N)N [IF-235]
Second: CC(C)NC(=O)[C@@]12C[C@@H]3CN(Cc4cccc5ccccc45)[C@@H]([C@@H]3CN1)[C@H]2CCCNC(=N)N [IF-244]
The IC50 of the first is higher: 10 to 30 µM for the first, under 5 µM for the second. The second is the more potent here.

Compared with `N=C(N)NCCC[C@@H]1[C@@H]2[C@@H]3CN[C@@]1(C(=O)NCc1ccccc1)C[C@@H]3CN2Cc1cccc2ccccc12` [IF-236], `N=C(N)NCCCNC(=O)[C@@]12C[C@@H]3CN(Cc4cccc5ccccc45)[C@@H]([C@@H]3CN1)[C@H]2CCc1ccccc1` [IF-389] is lower in IC50: 10 to 30 µM for the first, under 5 µM for the second.

Compared with `N=C(N)NCCC[C@@H]1[C@@H]2[C@@H]3CN[C@@]1(C(=O)NCCO)C[C@@H]3CN2Cc1cccc2ccccc12` [IF-239], `N=C(N)NCCC[C@@H]1[C@@H]2[C@@H]3CN[C@@]1(C(=O)NCc1ccc(F)cc1)C[C@@H]3CN2Cc1cccc2ccccc12` [IF-245] is lower in IC50: 10 to 30 µM for the first, under 5 µM for the second. The second is the more potent here.

`NC(=O)C[C@@H]1[C@@H]2[C@@H]3CN[C@@]1(C(=O)NCc1ccccc1)C[C@@H]3CN2CC1CCCCC1` [IF-246] and `NC(=O)C[C@@H]1[C@@H]2[C@@H]3CN[C@@]1(C(=O)NCc1ccc(O)cc1)C[C@@H]3CN2CC1CCCCC1` [IF-247] fall in the same range of IC50: 10 to 30 µM for the first, 10 to 30 µM for the second.

`CCCCCCNC(=O)[C@@]12C[C@@H]3CN(CC4CCCCC4)[C@@H]([C@@H]3CN1)[C@H]2CCCNC(=N)N` [IF-260] and `CCCCCCNC(=O)[C@@]12C[C@@H]3CN(Cc4ccc(F)cc4)[C@@H]([C@@H]3CN1)[C@H]2CCCNC(=N)N` [IF-298] fall in the same range of IC50: 10 to 30 µM for the first, 10 to 30 µM for the second.

Compared with `CC(C)CNC(=O)[C@@]12C[C@@H]3CN(Cc4ccc(F)cc4)[C@@H]([C@@H]3CN1)[C@H]2CC(N)=O` [IF-262], `NC(=O)C[C@@H]1[C@@H]2[C@@H]3CN[C@@]1(C(=O)NCCc1ccccc1)C[C@@H]3CN2Cc1ccc(F)cc1` [IF-269] is higher in IC50: under 5 µM for the first, 10 to 30 µM for the second. The first is the more potent here.

`N=C(N)NCCC[C@@H]1[C@@H]2[C@@H]3CN[C@@]1(C(=O)NCc1cccc4ccccc14)C[C@@H]3CN2Cc1ccc(F)cc1` [IF-297] and `O=C(O)CCNC(=O)[C@@]12C[C@@H]3CN(Cc4ccc(F)cc4)[C@@H]([C@@H]3CN1)[C@H]2Cc1cccc2ccccc12` [IF-417] fall in the same range of IC50: 10 to 30 µM for the first, 10 to 30 µM for the second.

Compared with `CC(C)CC[C@@H]1[C@@H]2[C@@H]3CN[C@@]1(C(=O)NCCC(N)=O)C[C@@H]3CN2CC(C)C` [IF-300], `CC(C)CC[C@@H]1[C@@H]2[C@@H]3CN[C@@]1(C(=O)NCC(C)C)C[C@@H]3CN2CC(C)C` [IF-412] is lower in IC50: 10 to 30 µM for the first, under 5 µM for the second.

`CC(C)CCNC(=O)[C@@]12C[C@@H]3CN(CCCNC(=N)N)[C@@H]([C@@H]3CN1)[C@H]2Cc1cccc2ccccc12` [IF-356] and `CC(C)CCN1C[C@H]2C[C@]3(C(=O)NCCC(=O)O)NC[C@H]2[C@H]1[C@H]3Cc1cccc2ccccc12` [IF-413] fall in the same range of IC50: 10 to 30 µM for the first, 10 to 30 µM for the second.

`CC(C)CC[C@@H]1[C@@H]2[C@@H]3CN[C@@]1(C(=O)NCCC(N)=O)C[C@@H]3CN2Cc1cccc2ccccc12` [IF-384] and `CC(C)CC[C@@H]1[C@@H]2[C@@H]3CN[C@@]1(C(=O)NCc1cccc4ccccc14)C[C@@H]3CN2CCC(=O)O` [IF-422] fall in the same range of IC50: 10 to 30 µM for the first, 10 to 30 µM for the second.

`N=C(N)NCCCNC(=O)[C@@]12C[C@@H]3CN(Cc4cccc5ccccc45)[C@@H]([C@@H]3CN1)[C@H]2Cc1ccccc1` [IF-386] and `N=C(N)NCCCNC(=O)[C@@]12C[C@@H]3CN(Cc4cccc5ccccc45)[C@@H]([C@@H]3CN1)[C@H]2Cc1cccc2ccccc12` [IF-390] fall in the same range of IC50: 10 to 30 µM for the first, 10 to 30 µM for the second.

Compared with `CC(C)CC[C@@H]1[C@@H]2[C@@H]3CN[C@@]1(C(=O)NCC(C)C)C[C@@H]3CN2Cc1ccccc1` [IF-411], `CC(C)CNC(=O)[C@@]12C[C@@H]3CN(CCC(=O)O)[C@@H]([C@@H]3CN1)[C@H]2CCc1ccccc1` [IF-454] is higher in IC50: under 5 µM for the first, 10 to 30 µM for the second.

`O=C(O)CCNC(=O)[C@@]12C[C@@H]3CN(CC4CCCCC4)[C@@H]([C@@H]3CN1)[C@H]2Cc1cccc2ccccc12` [IF-416] and `O=C(O)CC[C@@H]1[C@@H]2[C@@H]3CN[C@@]1(C(=O)NCc1cccc4ccccc14)C[C@@H]3CN2CC1CCCCC1` [IF-419] fall in the same range of IC50: 10 to 30 µM for the first, 10 to 30 µM for the second.

`CC(C)CN1C[C@H]2C[C@]3(C(=O)NCCC(=O)O)NC[C@H]2[C@H]1[C@H]3Cc1cccc2ccccc12` [IF-428] and `O=C(O)CCNC(=O)[C@@]12C[C@@H]3CN(CCO)[C@@H]([C@@H]3CN1)[C@H]2Cc1cccc2ccccc12` [IF-444] fall in the same range of IC50: 10 to 30 µM for the first, 10 to 30 µM for the second.

`NC(=O)CCNC(=O)[C@@]12C[C@@H]3CN(Cc4cccc5ccccc45)[C@@H]([C@@H]3CN1)[C@H]2Cc1ccc(O)cc1` [IF-435] and `O=C(NCc1ccc(O)cc1)[C@@]12C[C@@H]3CN(Cc4cccc5ccccc45)[C@@H]([C@@H]3CN1)[C@H]2Cc1ccccc1` [IF-472] cannot be ordered by IC50: under 5 µM for the first, under 5 µM for the second.

`O=C(NCCc1ccccc1)[C@@]12C[C@@H]3CN(CC4CCCCC4)[C@@H]([C@@H]3CN1)[C@H]2Cc1ccc(O)cc1` [IF-439] and `O=C(NCc1ccc(O)cc1)[C@@]12C[C@@H]3CN(CC4CCCCC4)[C@@H]([C@@H]3CN1)[C@H]2Cc1ccccc1` [IF-477] cannot be ordered by IC50: under 5 µM for the first, under 5 µM for the second.

`CC(C)CCN1C[C@H]2C[C@]3(C(=O)NCc4ccc(O)cc4)NC[C@H]2[C@H]1[C@H]3CCC(=O)O` [IF-445] and `CC(C)CC[C@@H]1[C@@H]2[C@@H]3CN[C@@]1(C(=O)NCc1ccc(O)cc1)C[C@@H]3CN2CCC(=O)O` [IF-458] fall in the same range of IC50: 10 to 30 µM for the first, 10 to 30 µM for the second.

First: O=C(O)CC[C@@H]1[C@@H]2[C@@H]3CN[C@@]1(C(=O)NCc1ccc(O)cc1)C[C@@H]3CN2CC1CCCCC1 [IF-447]
Second: CC(C)CC[C@@H]1[C@@H]2[C@@H]3CN[C@@]1(C(=O)NCc1ccc(O)cc1)C[C@@H]3CN2CC1CCCCC1 [IF-474]
The IC50 of the first is higher: 10 to 30 µM for the first, under 5 µM for the second. The second is the more potent here.

`O=C(O)CCN1C[C@H]2C[C@]3(C(=O)NCCO)NC[C@H]2[C@H]1[C@H]3Cc1cccc2ccccc12` [IF-452] and `CC(C)CCN1C[C@H]2C[C@]3(C(=O)NCc4ccc(O)cc4)NC[C@H]2[C@H]1[C@H]3Cc1cccc2ccccc12` [IF-465] fall in the same range of IC50: 10 to 30 µM for the first, 10 to 30 µM for the second.

`CC(C)CNC(=O)[C@@]12C[C@@H]3CN(CCC(=O)O)[C@@H]([C@@H]3CN1)[C@H]2Cc1ccc(O)cc1` [IF-455] and `CC(C)CCN1C[C@H]2C[C@]3(C(=O)NCc4ccc(O)cc4)NC[C@H]2[C@H]1[C@H]3Cc1ccccc1` [IF-466] fall in the same range of IC50: 10 to 30 µM for the first, 10 to 30 µM for the second.

`CC(C)CCN1C[C@H]2C[C@]3(C(=O)NCc4ccc(O)cc4)NC[C@H]2[C@H]1[C@H]3CCc1ccccc1` [IF-464] and `CC(C)CC[C@@H]1[C@@H]2[C@@H]3CN[C@@]1(C(=O)NCc1ccc(O)cc1)C[C@@H]3CN2CCc1ccccc1` [IF-468] fall in the same range of IC50: 10 to 30 µM for the first, 10 to 30 µM for the second.

`O=C(NCc1ccc(O)cc1)[C@@]12C[C@@H]3CN(CCc4ccccc4)[C@@H]([C@@H]3CN1)[C@H]2Cc1ccccc1` [IF-469] and `O=C(NCc1ccc(O)cc1)[C@@]12C[C@@H]3CN(Cc4ccc(F)cc4)[C@@H]([C@@H]3CN1)[C@H]2Cc1ccccc1` [IF-481] fall in the same range of IC50: 10 to 30 µM for the first, 10 to 30 µM for the second.

`CC(C)C[C@@H]1[C@@H]2[C@@H]3CN[C@@]1(C(=O)NCc1ccc(O)cc1)C[C@@H]3CN2CCc1ccccc1` [IF-470] and `O=C(NCc1ccc(O)cc1)[C@@]12C[C@@H]3CN(CC4CCCCC4)[C@@H]([C@@H]3CN1)[C@H]2CCc1ccccc1` [IF-475] fall in the same range of IC50: 10 to 30 µM for the first, 10 to 30 µM for the second.

`CC(C)C[C@@H]1[C@@H]2[C@@H]3CN[C@@]1(C(=O)NCc1ccc(O)cc1)C[C@@H]3CN2CC1CCCCC1` [IF-478] and `CC(C)CC[C@@H]1[C@@H]2[C@@H]3CN[C@@]1(C(=O)NCc1ccc(O)cc1)C[C@@H]3CN2Cc1ccc(F)cc1` [IF-479] cannot be ordered by IC50: under 5 µM for the first, under 5 µM for the second.
